Here are results for 1 compound from paper PMC9118996, “Directed evolution of Zymomonas mobilis sugar facilitator Glf to overcome glucose inhibition” (Journal of Industrial Microbiology & Biotechnology, 2021).

For this test, the target named is T1, Glf (Zymomonas mobilis sugar / glucose facilitator) (Zymomonas mobilis, UniProt P21906).
T1 construct: full-length glf coding region with 20 bp native flanks in pTrc99A (pGlfwt), no tag told; expressed in E. coli W derivatives EG29 and EG51A lacking glucose and xylose uptake
T1 sequence (P21906 1-473): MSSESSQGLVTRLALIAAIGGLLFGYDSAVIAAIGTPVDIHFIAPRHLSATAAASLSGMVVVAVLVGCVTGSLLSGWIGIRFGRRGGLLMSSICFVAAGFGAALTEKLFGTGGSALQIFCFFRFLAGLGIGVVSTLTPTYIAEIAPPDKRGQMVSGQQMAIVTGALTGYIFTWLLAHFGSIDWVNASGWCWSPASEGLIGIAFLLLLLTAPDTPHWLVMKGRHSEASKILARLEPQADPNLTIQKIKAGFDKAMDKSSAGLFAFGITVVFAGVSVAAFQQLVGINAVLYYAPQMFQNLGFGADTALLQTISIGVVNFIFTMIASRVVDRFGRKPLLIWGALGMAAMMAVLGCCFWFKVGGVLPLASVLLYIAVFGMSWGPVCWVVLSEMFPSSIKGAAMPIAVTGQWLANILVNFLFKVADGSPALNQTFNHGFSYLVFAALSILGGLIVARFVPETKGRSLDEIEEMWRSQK
Put plainly: xylose utilization in fermentation of transport-deficient E. coli with Glf vs empty vector (HPLC). The format is cell-based, Escherichia coli. To be noted: E. coli EG51A (EG29 glk-), 34 g/l xylose alone, pH 7.0, 37 °C, 10 µM IPTG; facilitated uptake; whole-cell read-out.

Take `OC1OC[C@@H](O)[C@H](O)[C@H]1O` (stereo partly drawn) [D-xylose]: the “xylose utilization in fermentation of transport-deficient E. coli with Glf vs em” value is “EG51A transformed with pGlfwt showed much improved xylose utilization compared to EG51A with empty vector”.
